Results on 32 compounds are retold here after patent publication US9221822B2, “Thiazolopyrimidine modulators as immunosuppressive agents” (Katholieke Universiteit Leuven, K.U.Leuven R&D, priority 2009, dated 2015).

pIC50: −log10 of the molar value.

The test relates to Human peripheral blood mononuclear cells (PBMCs) as Responder cells, RPMI 1788 Stimulator cells. Briefly: Mixed Lymphocyte Reaction (MLR) test. In kind it is cell-based. As to conditions: Homo sapiens, RPMI-1788, lowest concentration giving 50% inhibition of the MLR; 6 days coculture, 3H-thymidine incorporation. The procedure, abridged:
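Proliferation was read as cpm after a 1 μCi ^3H-thymidine pulse on day 5 and harvest 18 h later, then expressed as % inhibition relative to an MLR without compound. The 6-day triplicate cocultures combined 0.12×10^6 Ficoll-isolated human PBMCs with 0.045×10^6 mitomycin C-inactivated RPMI 1788 cells in RPMI 1640 with 10% FCS.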
For `Cc1cccc(OCC(=O)N2CCN(c3nc(N)nc4sc(-c5ccco5)nc34)CC2)c1` [Example 210, 1-(4-(5-amino-2-(furan-2-yl)thiazolo[5,4-d]pyrimidin-7-yl)piperazin-1-yl)-2-(m-tolyloxy)ethanone], the pIC50 is 7.14. The result for `Cc1cccc(OCC(=O)N2CCN(c3nc(N)nc4sc(-c5ccc(F)cc5)nc34)CC2)c1` [Example 211, 1-(4-(5-amino-2-(4-fluorophenyl)thiazolo[5,4-d]pyrimidin-7-yl)piperazin-1-yl)-2-(m-tolyloxy)ethanone] reads 7.28. The result for `Nc1nc(N2CCN(C(=O)COc3ccc(Cl)cc3Cl)CC2)c2nc(-c3ccc(F)cc3)sc2n1` [Example 212, 1-(4-(5-amino-2-(4-fluorophenyl)thiazolo[5,4-d]pyrimidin-7-yl)piperazin-1-yl)-2-(2,4-dichlorophenoxy)ethanone] reads 6.43. The result for `Cc1cc(Cl)ccc1OCC(=O)N1CCN(c2nc(N)nc3sc(-c4ccc(F)cc4)nc23)CC1` [Example 213, 1-(4-(5-amino-2-(4-fluorophenyl)thiazolo[5,4-d]pyrimidin-7-yl)piperazin-1-yl)-2-(4-chloro-2-methylphenoxy)ethanone] reads 6.66; that for `Nc1nc(N2CCN(C(=O)COc3cccc(Cl)c3)CC2)c2nc(-c3ccc(F)cc3)sc2n1` [Example 214, 1-(4-(5-amino-2-(4-fluorophenyl)thiazolo[5,4-d]pyrimidin-7-yl)piperazin-1-yl)-2-(3-chlorophenoxy)ethanone], 6.92; that for `Nc1nc(N2CCN(C(=O)COc3ccc(Cl)cc3)CC2)c2nc(-c3ccccc3)sc2n1` [Example 215, 1-(4-(5-amino-2-phenylthiazolo[5,4-d]pyrimidin-7-yl)piperazin-1-yl)-2-(4-chlorophenoxy)ethanone], 6.94. For the compound `N#Cc1ccc(NC(=O)N2CCN(c3nc(N)nc4sc(-c5ccc(F)cc5)nc34)CC2)cc1` [Example 216, 4-(5-amino-2-(4-fluorophenyl)thiazolo[5,4-d]pyrimidin-7-yl)-N-(4-cyanophenyl)piperazine-1-carboxamide], the pIC50 is 7.72. The result for `Nc1nc(N2CCN(C(=O)Nc3ccc(F)cc3F)CC2)c2nc(-c3ccc(F)cc3)sc2n1` [Example 217, 4-(5-amino-2-(4-fluorophenyl)thiazolo[5,4-d]pyrimidin-7-yl)-N-(2,4-difluorophenyl)piperazine-1-carboxamide] reads 6.46; that for `Nc1nc(N2CCN(C(=O)Nc3ccc(Br)cc3)CC2)c2nc(-c3ccc(F)cc3)sc2n1` [Example 218, 4-(5-amino-2-(4-fluorophenyl)thiazolo[5,4-d]pyrimidin-7-yl)-N-(4-bromophenyl)piperazine-1-carboxamide], 6.75; that for `COc1ccccc1NC(=O)N1CCN(c2nc(N)nc3sc(-c4ccc(F)cc4)nc23)CC1` [Example 219, 4-(5-amino-2-(4-fluorophenyl)thiazolo[5,4-d]pyrimidin-7-yl)-N-(2-methoxyphenyl)piperazine-1-carboxamide], 6.49. To `Cc1cccc(NC(=O)N2CCN(c3nc(N)nc4sc(-c5ccccc5)nc34)CC2)c1` [Example 220, 4-(5-amino-2-phenylthiazolo[5,4-d]pyrimidin-7-yl)-N-m-tolylpiperazine-1-carboxamide] belongs 6.77. To `Nc1nc(N2CCN(C(=O)CCc3ccc(Br)cc3)CC2)c2nc(CCc3ccc(F)cc3)sc2n1` [Example 223, 1-(4-(5-amino-2-(4-fluorophenethyl)thiazolo[5,4-d]pyrimidin-7-yl)piperazin-1-yl)-3-(4-bromophenyl)propan-1-one] belongs less than 5.00. Compound `Nc1nc(N2CCN(C(=O)COc3ccc(O)cc3)CC2)c2nc(CCc3ccc(F)cc3)sc2n1` [Example 224, 1-(4-(5-amino-2-(4-fluorophenethyl)thiazolo[5,4-d]pyrimidin-7-yl)piperazin-1-yl)-2-(4-hydroxyphenoxy)ethanone] showed a pIC50 of 5.96.

Compound `COC(=O)c1ccc(OCC(=O)N2CCN(c3nc(N)nc4sc(CCc5ccc(F)cc5)nc34)CC2)cc1` [Example 225, methyl 4-(2-(4-(5-amino-2-(4-fluorophenethyl)thiazolo[5,4-d]pyrimidin-7-yl)piperazin-1-yl)-2-oxoethoxy)benzoate] gave a pIC50 of less than 5.00. The result for `Nc1nc(N2CCN(C(=O)COc3ccc(OC(F)(F)F)cc3)CC2)c2nc(CCc3ccc(F)cc3)sc2n1` [Example 226, 1-(4-(5-amino-2-(4-fluorophenethyl)thiazolo[5,4-d]pyrimidin-7-yl)piperazin-1-yl)-2-(4-(trifluoromethoxy)phenoxy)ethanone] reads 5.15; that for `CC(=O)c1ccc(OCC(=O)N2CCN(c3nc(N)nc4sc(CCc5ccc(F)cc5)nc34)CC2)cc1` [Example 227, 2-(4-acetylphenoxy)-1-(4-(5-amino-2-(4-fluorophenethyl)thiazolo[5,4-d]pyrimidin-7-yl)piperazin-1-yl)ethanone], 6.21; that for `Nc1nc(N2CCN(C(=O)COc3cccc(Cl)c3)CC2)c2nc(CCc3ccc(F)cc3)sc2n1` [Example 228, 1-(4-(5-amino-2-(4-fluorophenethyl)thiazolo[5,4-d]pyrimidin-7-yl)piperazin-1-yl)-2-(3-chlorophenoxy)ethanone], 5.76. The result for `N#Cc1ccc(NC(=O)N2CCN(c3nc(N)nc4sc(CCc5ccc(F)cc5)nc34)CC2)cc1` [Example 229, 4-(5-amino-2-(4-fluorophenethyl)thiazolo[5,4-d]pyrimidin-7-yl)-N-(4-cyanophenyl)piperazine-1-carboxamide] reads 5.58. The result for `COc1ccc(OCC(=O)N2CCN(c3nc(N)nc4sc(Cc5ccc(F)cc5)nc34)CC2)cc1` [Example 230, 1-(4-(5-amino-2-(4-fluorobenzyl)thiazolo[5,4-d]pyrimidin-7-yl)piperazin-1-yl)-2-(4-methoxyphenoxy)ethanone] reads 6.57; that for `Nc1nc(N2CCN(C(=O)COc3ccc(Br)cc3)CC2)c2nc(Cc3ccc(F)cc3)sc2n1` [Example 231, 1-(4-(5-amino-2-(4-fluorobenzyl)thiazolo[5,4-d]pyrimidin-7-yl)piperazin-1-yl)-2-(4-bromophenoxy)ethanone], 6.26.

Take `N#Cc1ccc(NC(=O)N2CCN(c3nc(N)nc4sc(Cc5ccc(F)cc5)nc34)CC2)cc1` [Example 232, 4-(5-amino-2-(4-fluorobenzyl)thiazolo[5,4-d]pyrimidin-7-yl)-N-(4-cyanophenyl)piperazine-1-carboxamide]: the pIC50 is 6.07. The result for `Nc1nc(N2CCN(C(=O)COc3ccc(F)cc3)CC2)c2nc(-c3ccc(F)cc3)sc2n1` [Example 233, 1-(4-(5-amino-2-(4-fluorophenyl)thiazolo[5,4-d]pyrimidin-7-yl)piperazin-1-yl)-2-(4-fluorophenoxy)ethanone] reads 7.13. The result for `COc1ccc(OCC(=O)N2CCN(c3nc(N)nc4sc(-c5ccc(F)cc5)nc34)CC2)cc1` [Example 234, 1-(4-(5-amino-2-(4-fluorophenyl)thiazolo[5,4-d]pyrimidin-7-yl)piperazin-1-yl)-2-(4-methoxyphenoxy)ethanone] reads 7.43; that for `Nc1nc(N2CCN(C(=O)COc3ccc(Br)cc3)CC2)c2nc(-c3ccc(F)cc3)sc2n1` [Example 235, 1-(4-(5-amino-2-(4-fluorophenyl)thiazolo[5,4-d]pyrimidin-7-yl)piperazin-1-yl)-2-(4-bromophenoxy)ethanone], 6.34; that for `Nc1nc(N2CCN(C(=O)CCc3ccc(F)cc3)CC2)c2nc(-c3ccc(F)cc3)sc2n1` [Example 236, 1-(4-(5-amino-2-(4-fluorophenyl)thiazolo[5,4-d]pyrimidin-7-yl)piperazin-1-yl)-3-(4-fluorophenyl)propan-1-one], 6.05.

With `CC(C)(Oc1ccc(Cl)cc1)C(=O)N1CCN(c2nc(N)nc3sc(-c4ccc(F)cc4)nc23)CC1` [Example 237, 1-(4-(5-amino-2-(4-fluorophenyl)thiazolo[5,4-d]pyrimidin-7-yl)piperazin-1-yl)-2-(4-chlorophenoxy)-2-methylpropan-1-one], the pIC50 was less than 5.00.

Take `COc1ccc(OCC(=O)N2CCN(c3nc(N)nc4sc(CCc5cccc(OC)c5)nc34)CC2)cc1` [Example 253, 1-(4-(5-amino-2-(3-methoxyphenethyl)thiazolo[5,4-d]pyrimidin-7-yl)piperazin-1-yl)-2-(4-methoxyphenoxy)ethanone]: the pIC50 was 6.15. To `COc1cccc(CCc2nc3c(N4CCN(C(=O)COc5ccc(Br)cc5)CC4)nc(N)nc3s2)c1` [Example 254, 1-(4-(5-amino-2-(3-methoxyphenethyl)thiazolo[5,4-d]pyrimidin-7-yl)piperazin-1-yl)-2-(4-bromophenoxy)ethanone] belongs 5.91; to `COc1cccc(CCc2nc3c(N4CCN(C(=O)COc5ccc(Cl)cc5)CC4)nc(N)nc3s2)c1` [Example 255, 1-(4-(5-amino-2-(3-methoxyphenethyl)thiazolo[5,4-d]pyrimidin-7-yl)piperazin-1-yl)-2-(4-chlorophenoxy)ethanone], 6.15; to `COc1ccc(CCc2nc3c(N4CCN(C(=O)COc5ccc(Br)cc5)CC4)nc(N)nc3s2)cc1OC` [Example 256, 1-(4-(5-amino-2-(3,4-dimethoxyphenethyl)thiazolo[5,4-d]pyrimidin-7-yl)piperazin-1-yl)-2-(4-bromophenoxy)ethanone], 6.13.

The compound `COc1ccc(OCC(=O)N2CCN(c3nc(N)nc4sc(CCc5ccc(OC)c(OC)c5)nc34)CC2)cc1` [Example 257, 1-(4-(5-amino-2-(3,4-dimethoxyphenethyl)thiazolo[5,4-d]pyrimidin-7-yl)piperazin-1-yl)-2-(4-methoxyphenoxy)ethanone] had a pIC50 of 5.94. The pIC50 values of the last two compounds are within 0.2 log units of each other. To `Cc1ccc(CCc2nc3c(N4CCN(C(=O)COc5ccc(Br)cc5)CC4)nc(N)nc3s2)cc1` [Example 258, 1-(4-(5-amino-2-(4-methylphenethyl)thiazolo[5,4-d]pyrimidin-7-yl)piperazin-1-yl)-2-(4-bromophenoxy)ethanone] belongs 6.03.
